US20220289691A1, “5-AMINO-SUBSTITUTED PYRAZOLES AND TRIAZOLES AS PEST CONTROL AGENTS” (Bayer Aktiengesellschaft, priority 2019, published 2022)

Legend:
Format in all cases: in vivo
[1] = system: Spodoptera frugiperda; assay: Spodoptera frugiperda spray test; conditions: foliar, 168 h, maize leaf discs, after 7 days, read-out: efficacy (caterpillars killed)
Outline: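 Compound was dissolved in acetone/dimethylformamide and diluted with water containing 1000 ppm alkylaryl polyglycol ether emulsifier to test concentrations. Maize leaf discs were sprayed, dried and infested with fall armyworm caterpillars. Efficacy (% caterpillars killed) was scored after 7 days.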

[2] = system: Boophilus microplus; assay: Boophilus microplus injection test; conditions: 20 μg/animal, injection into engorged adult female cattle ticks, after 7 days
Method: Boophilus microplus—Injection Test
(§1) Solvent: Dimethyl Sulfoxide
To produce a suitable active compound formulation, 10 mg of active compound are mixed with 0.5 ml of solvent and the concentrate is diluted to the desired concentration with solvent.
1 μl of the active compound solution is injected into the abdomen of 5 engorged adult female cattle ticks (Boophilus microplus). The animals are transferred into dishes and kept in a climate-controlled room.
Efficacy is assessed after 7 days by laying of fertile eggs. Eggs which are not visibly fertile are stored in a climate-controlled cabinet until the larvae hatch after about 42 days. An efficacy of 100% means that none of the ticks has laid any fertile eggs; 0% means that all the eggs are fertile.

[3] = system: Ctenocephalides felis; assay: Ctenocephalides felis oral test; conditions: 48 h, 100 ppm in citrated cattle blood, adult cat fleas, after 2 days, read-out: efficacy (kill)
Method: Ctenocephalides felis—Oral Test
as §1
To produce a suitable active compound formulation, 10 mg of active compound are mixed with 0.5 ml of dimethyl sulfoxide. Dilution with citrated cattle blood gives the desired concentration.
About 20 unfed adult cat fleas (Ctenocephalides felis) are placed into a chamber which is closed at the top and bottom with gauze. A metal cylinder whose bottom end is closed with parafilm is placed onto the chamber. The cylinder contains the blood/active compound formulation, which can be imbibed by the fleas through the parafilm membrane.
After 2 days, the kill in % is determined. 100% means that all of the fleas have been killed; 0% means that none of the fleas have been killed.

[4] = system: Phaedon cochleariae; assay: Phaedon cochleariae spray test; conditions: foliar, 168 h, Chinese cabbage leaf discs, after 7 days, read-out: efficacy (beetle larvae killed)
Method: Phaedon cochleariae—Spray Test Solvent: 78.0 parts by weight of acetone • • 1.5 parts by weight of dimethylformamide Emulsifier: alkylaryl polyglycol ether
To produce a suitable active compound formulation, 1 part by weight of active compound is dissolved using the stated parts by weight of solvent and made up with water containing an emulsifier concentration of 1000 ppm until the desired concentration is attained. To produce further test concentrations, the formulation is diluted with emulsifier-containing water.
Discs of Chinese cabbage leaves (Brassica pekinensis) are sprayed with an active compound formulation of the desired concentration and, after drying, populated with larvae of the mustard beetle (Phaedon cochleariae).
After 7 days, the efficacy in % is determined. 100% means that all the beetle larvae have been killed; 0% means that no beetle larvae have been killed.

[5] = system: Meloidogyne incognita; assay: Meloidogyne incognita test; conditions: 336 h, lettuce, after 14 days, read-out: nematicidal efficacy (formation of galls)
Method: Meloidogyne incognita Test Solvent: 125.0 parts by weight of acetone
To produce a suitable active compound formulation, 1 part by weight of active compound is mixed with the stated amount of solvent and the concentrate is diluted to the desired concentration with water.
Vessels are filled with sand, active compound solution, an egg/larvae suspension of the southern root-knot nematode (Meloidogyne incognita) and lettuce seeds. The lettuce seeds germinate and the plants develop. The galls develop on the roots.
After 14 days, the nematicidal efficacy in % is determined by the formation of galls. 100% means that no galls were found; 0% means that the number of galls on the treated plants corresponds to the untreated control.

[6] = system: Diabrotica balteata; assay: Diabrotica balteata spray test; conditions: 168 h, beetle larvae on wheat, after 7 days, read-out: efficacy (wheat plant growth); for pest or weed control at 100 g/ha: 100 g/ha (=32 μg/cavity); for pest or weed control at 125 g/ha: 125 g/ha (=40 μg/cavity); for pest or weed control at 500 g/ha: 500 g/ha (=160 μg/cavity)
Outline: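 Germinated wheat seedlings in agar multiwell plates were sprayed with compound in acetone/DMF with emulsifier-containing water, then infested with 10-20 Diabrotica balteata larvae. After 7 days, efficacy (%) scored by plant growth: 100% equals untreated, uninfested control, 0% no plants grown.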

[7] = system: Ctenocephalides felis; assay: Ctenocephalides felis in vitro contact test with adult cat fleas; conditions: 5 μg/cm^2 (=500 g of ai/ha), after 48 h, read-out: efficacy (fleas dead or moribund)
Method: Ctenocephalides felis—In Vitro Contact Tests with Adult Cat Fleas
For the coating of the test tubes, 9 mg of active compound are first dissolved in 1 ml of acetone p.a. and then diluted to the desired concentration with acetone p.a. 250 μl of the solution are distributed homogeneously on the inner walls and the base of a 25 ml glass tube by turning and rocking on an orbital shaker (rocking rotation at 30 rpm for 2 h). With 900 ppm of active compound solution and internal surface area 44.7 cm^2, given homogeneous distribution, an area-based dose of 5 μg/cm^2 is achieved.
After the solvent has evaporated off, the tubes are populated with 5-10 adult cat fleas (Ctenocephalides felis), sealed with a perforated plastic lid and incubated in a horizontal position at room temperature and ambient humidity. After 48 h, efficacy is determined. To this end, the tubes are stood upright and the fleas are knocked to the base of the tube. Fleas which remain motionless at the base or move in an uncoordinated manner are considered to be dead or moribund.
100% efficacy means that all the fleas were dead or moribund. 0% efficacy means that no fleas were harmed.

[8] = system: Musca domestica; assay: Musca domestica test; conditions: 100 ppm, adult houseflies, after 2 days
Method: as §1
To produce a suitable active compound formulation, 10 mg of active compound are mixed with 0.5 ml of dimethyl sulfoxide, and the concentrate is diluted with water to the desired concentration.
Vessels containing a sponge treated with sugar solution and the desired concentration of active compound formulation are populated with 10 adult houseflies (Musca domestica).
After 2 days, the kill in % is determined. 100% means that all of the flies have been killed; 0% means that none of the flies have been killed.

SMILES | pest or weed control at 100 ppm [3] [%] | pest or weed control at 100 g/ha [4] [%] | pest or weed control at 100 g/ha [1] [%] | pest or weed control at 20 ppm [5] [%] | pest or weed control at 100 g/ha [6] [%] | pest or weed control at 5 µg/cm2 [7] [%] | further results
CCO[C@@H]1[C@@H](OC)[C@H](C)O[C@@H](OC(=O)Nc2ccc(-c3nc(NC(=O)CC)n(-c4ccc(OC(F)(F)F)cc4)n3)cc2)[C@@H]1OC [Compound I-007] | 90 | 100 |  |  |  |  | pest or weed control at 500 g/ha [1]: 100%; efficacy (laying of fertile eggs) [2]: 100%; pest or weed control at 500 g/ha [4]: 100%
CC(=O)Nc1nc(-c2ccc(C(C)=NNC(=S)Nc3ccccc3C(C)C)cc2)nn1-c1ccc(OC(F)(F)F)cc1 [Compound I-017] | 95 | 100 | 100 | 90 |  |  | 
CNc1nc(-c2ccc(C=NN=c3scc(C)n3-c3ccccc3C(C)C)cc2)nn1-c1ccc(OC(F)(F)F)cc1 [Compound I-097, 3-[4-({[3-(2-isopropylphenyl)-4-methyl-1,3-thiazol-2(3H)-ylidene]hydrazono}methyl)phenyl]-N-methyl-1-[4-(trifluoromethoxy)phenyl]-1H-1,2,4-triazol-5-amine] |  |  | 83 |  | 100 | 100 | 
CNc1nc(-c2ccc(NC(=O)N=C3SCC(=O)N3c3cc(C)ccc3C(C)C)cc2)nn1-c1ccc(OC(F)(F)C(F)(F)F)cc1 [Compound I-079] |  |  | 100 |  | 100 | 100 | 
CO[C@@H]1[C@@H](OC)[C@H](C)O[C@@H](OC(=O)Nc2ccc(-c3nc(NC(C)=O)n(-c4ccc(OC(F)(F)C(F)(F)F)cc4)n3)cc2)[C@@H]1OC [Compound I-008] | 100 | 100 | 100 |  |  |  | pest or weed control at 500 g/ha [1]: 100%; efficacy (kill) [8]: 80%; pest or weed control at 500 g/ha [4]: 100%
CNc1nc(-c2ccc(C=NN=C3SCC(=O)N3c3cc(OC)ccc3C(C)C)cc2)nn1-c1ccc(OC(F)(F)F)cc1 [Compound I-090] |  |  | 100 |  | 100 | 100 | 
CNc1nc(-c2ccc(C=NNC(=S)Nc3ccccc3C(C)C)cc2F)nn1-c1ccc(OC(F)(F)F)cc1 [Compound I-109] |  |  | 100 | 90 | 100 |  | 
CCN(CC)c1nc(-c2ccc(C=NNC(=S)Nc3ccccc3C(C)C)cc2)nn1-c1ccc(OC(F)(F)F)cc1 [Compound I-020] |  |  | 100 | 100 |  |  | pest or weed control at 125 g/ha [6]: 80%; pest or weed control at 500 g/ha [6]: 100%
CC(=O)Nc1nc(-c2ccc(C=NNC(=S)Nc3ccccc3C(C)C)cc2)nn1-c1ccc(OC(F)(F)F)cc1 [Compound I-009] | 100 | 100 | 100 |  |  | 100 | 
CNc1nc(-c2cc(F)c(C=NNC(=S)Nc3ccccc3C(C)C)c(F)c2)nn1-c1ccc(OC(F)(F)F)cc1 [Compound I-107] |  |  | 100 | 90 | 100 |  | 
CNc1nc(-c2ccc(C=NN=C3SCCCN3c3ccccc3C(C)C)cc2)nn1-c1ccc(OC(F)(F)F)cc1 [Compound I-117] |  |  | 100 |  | 100 | 100 | 
CNc1nc(-c2ccc(C=NNC(=S)Nc3ccccc3C(C)C)cc2Cl)nn1-c1ccc(OC(F)(F)F)cc1 [Compound I-108] |  |  | 100 | 90 | 100 |  | 
CNc1nc(-c2ccc(C=NN=C3SCC(=O)N3c3ccccc3C(C)C)c(F)c2)nn1-c1ccc(OC(F)(F)F)cc1 [Compound I-105] |  |  | 100 | 90 | 100 |  | 
CNc1nc(-c2ccc(NC(=O)N=C3SCC(=O)N3c3cc(OC)ccc3C(C)C)cc2)nn1-c1ccc(OC(F)(F)C(F)(F)F)cc1 [Compound I-083] |  |  | 100 |  | 100 | 90 | 
CCO[C@@H]1[C@@H](OC)[C@H](C)O[C@@H](OC(=O)Nc2ccc(-c3nc(NC(=O)C4CC4)n(-c4ccc(OC(F)(F)C(F)(F)F)cc4)n3)cc2)[C@@H]1OC [Compound I-002] | 100 | 83 | 100 |  |  |  | pest or weed control at 500 g/ha [1]: 100%; efficacy (kill) [8]: 90%; pest or weed control at 500 g/ha [4]: 100%
CCC(=O)Nc1nc(-c2ccc(NC(=O)O[C@@H]3O[C@@H](C)[C@H](OC)[C@@H](OC)[C@H]3OC)cc2)nn1-c1ccc(OC(F)(F)C(F)(F)F)cc1 [Compound I-003] | 100 | 100 | 100 |  |  |  | pest or weed control at 500 g/ha [1]: 100%; efficacy (laying of fertile eggs) [2]: 100%; pest or weed control at 500 g/ha [4]: 100%
CC(C)c1ccccc1NC(=S)NN=Cc1ccc(-c2nc(NC3CC3)n(-c3ccc(OC(F)(F)F)cc3)n2)cc1 [Compound I-051] |  |  | 100 | 90 | 100 |  | pest or weed control at 500 g/ha [6]: 100%
CC(=O)Nc1nc(-c2ccc(C=NN=C3SCC(=O)N3c3ccccc3C(C)C)cc2)nn1-c1ccc(OC(F)(F)F)cc1 [Compound I-032] |  |  | 100 |  |  | 80 | pest or weed control at 125 g/ha [6]: 100%; pest or weed control at 500 g/ha [6]: 100%
CCO[C@@H]1[C@@H](OC)[C@H](C)O[C@@H](OC(=O)Nc2ccc(-c3nc(NC(=O)CC)n(-c4ccc(OC(F)(F)C(F)(F)F)cc4)n3)cc2)[C@@H]1OC [Compound I-005] | 100 | 100 | 100 |  |  |  | pest or weed control at 500 g/ha [1]: 100%; efficacy (kill) [8]: 80%; efficacy (laying of fertile eggs) [2]: 90%; pest or weed control at 500 g/ha [4]: 100%
